# Measured values published in patent US20050119352A1, “Method of treating cancers” (priority 2002, published 2005).
# Where two headings read alike, the source gives them in different places.
# Experiments:
# [1] = cited from earlier work
# [2] = tested on: K562 cells (human chronic myelogenous leukemia cell line), imatinib-resistant; assay: MTT cell survival assay in K562 CML cells, imatinib-resistant line; assay type: cell-based; conditions: 48 hours; for % Viability: Imatinib 0 μM
# Method: (§1) K562 cells (a human chronic myelogenous leukemia (CML) cell line), were suspended in RPMI 1640 Medium (Life Technologies Inc.), supplemented with 10% FCS, 2 mM L-glutamine in 96-well plates (2×10^4 cells per well). Both an imatinib-sensitive and an imatinib-resistant cell line were used. Each well was treated with β-lapachone and/or imatinib. Each condition was run in triplicate. After incubation for 48 hours, cell survival was assayed using MTT to determine cell survival. The plates were read using a plate reader at 570 nm.
# [3] = tested on: ARH-77 cells, a human multiple myeloma cell line; assay: MTT cell survival assay in ARH-77 multiple myeloma cells
# Method: β-lapachone was dissolved at 20 mM concentration in dimethyl sulfoxide (DMSO), aliquoted, and stored at −20° C. for cell culture use. Imatinib was dissolved at 100 mM concentration in dimethyl sulfoxide (DMSO).
# Each well was treated with β-lapachone and/or imatinib. Each condition was run in triplicate. […] The plates were read using a plate reader at 570 nm.
# [4] = tested on: K562 cells (human chronic myelogenous leukemia cell line), imatinib-sensitive; assay: MTT cell survival assay in K562 CML cells, imatinib-sensitive line
# Method: as §1
# [5] = tested on: transplanted human mammary carcinoma; conditions: cited from earlier work
smiles,measurement,setting,value
"CC1(C)CCC2=C(O1)c1ccccc1C(=O)C2=O [β-lapachone, 3,4-dihydro-2,2-dimethyl-2H-naphtho[1,2-b]pyran-5,6-dione]",water solubility,[1],water insolubility
same,% Viability,[2]; B-lapachon 0.5 μM,80.5%
same,% Viability,[2]; B-lapachon 1 μM,79%
same,% Viability,[2]; B-lapachon 2 μM,45%
same,% Viability,[2]; B-lapachon 4 μM,0.56%
same,viability at 1 µM,"[3]; Homo sapiens, ARH-77, 24 h, STI571 0 μM, Co-501 1 μM, 24 hours",91%
same,viability at 2 µM,"[3]; Homo sapiens, ARH-77, 24 h, STI571 0 μM, Co-501 2 μM, 24 hours",34%
same,viability at 4 µM,"[3]; Homo sapiens, ARH-77, 24 h, STI571 0 μM, Co-501 4 μM, 24 hours",40%
same,% Viability,"[3]; STI571 0 μM, Co-501 2 μM, 24 hours",34.3%
same,% Viability,"[3]; human, 24 h, 1 μM",91.4%
same,% Viability,"[4]; Imatinib 0 μM, B-lapachone 1 μM, 48 hours",36.2%
same,% Viability,"[4]; Imatinib 0 μM, B-lapachone 2 μM, 48 hours",11.9%
same,% Viability,"[4]; Imatinib 0 μM, B-lapachone 4 μM, 48 hours",1.0%
same,% Viability,"[4]; human, 48 h, 0.5 μM",58.3%
O=CN/C=C/c1cc(O)ccc1O [erbstatin],tumor growth,[5]; another carcinoma which does not express the EGF receptor,without effect
same,tumor growth,"[5]; carcinoma which expresses epidermal growth factor receptor tyrosine kinase, athymic nude mice",selectively attenuates the growth
"Cc1ccc(NC(=O)c2ccc(CN3CCN(C)CC3)cc2)cc1Nc1nccc(-c2cccnc2)n1 [imatinib, Imatinib]",viability at 1 µM,"[2]; Homo sapiens, K562, Imatinib 1 μM, B-lapachon 0 μM",94.7%
same,viability at 5 µM,"[2]; Homo sapiens, K562, Imatinib 5 μM, B-lapachon 0 μM",57.3%
same,viability at 10 µM,"[2]; Homo sapiens, K562, Imatinib 10 μM, B-lapachon 0 μM",22.5%
same,viability at 20 µM,"[2]; Homo sapiens, K562, Imatinib 20 μM, B-lapachon 0 μM",11.5%
same,viability at 40 µM,"[2]; Homo sapiens, K562, Imatinib 40 μM, B-lapachon 0 μM",4.9%
same,"sensitivity to imatinib alone, compared with imatinib-sensitive line",[2]; imatinib alone,less sensitivity
same,% Viability,"[3]; STI571 1 μM, Co-501 0 μM, 24 hours",66.3%
same,% Viability,"[3]; STI571 2 μM, Co-501 0 μM, 24 hours",80.0%
same,% Viability,"[3]; STI571 5 μM, Co-501 0 μM, 24 hours",85.7%
same,% Viability,"[3]; STI571 10 μM, Co-501 0 μM, 24 hours",91%
same,% Viability,"[3]; STI571 20 μM, Co-501 0 μM, 24 hours",47%
same,% Viability,"[3]; STI571 20 μM, Co-501 0 μM, 24 hours, listed as STI571",46.7%
same,% Viability,"[3]; STI571 50 μM, Co-501 0 μM, 24 hours",10.0%
same,viability at 0.5 µM,"[4]; Homo sapiens, K562, 48 h",57.2%
same,viability at 1 µM,"[4]; Homo sapiens, K562, 48 h",36.6%
same,viability at 5 µM,"[4]; Homo sapiens, K562, 48 h",20.9%
same,viability at 10 µM,"[4]; Homo sapiens, K562, 48 h",13.9%
same,viability at 20 µM,"[4]; Homo sapiens, K562, 48 h",0.9%
